Here are results for 30 compounds from US8846947B2, “Benzimidazoles and related analogs as sirtuin modulators” (GlaxoSmithKline LLC, priority 2008, dated 2014).

Where two headings read alike, the source gives them in different places. Where only a bound is given, the exact number is not on record here.

For this test, the target named is T1, SIRT1 (Homo sapiens, UniProt Q96EB6).
T1 sequence (Q96EB6 1-747): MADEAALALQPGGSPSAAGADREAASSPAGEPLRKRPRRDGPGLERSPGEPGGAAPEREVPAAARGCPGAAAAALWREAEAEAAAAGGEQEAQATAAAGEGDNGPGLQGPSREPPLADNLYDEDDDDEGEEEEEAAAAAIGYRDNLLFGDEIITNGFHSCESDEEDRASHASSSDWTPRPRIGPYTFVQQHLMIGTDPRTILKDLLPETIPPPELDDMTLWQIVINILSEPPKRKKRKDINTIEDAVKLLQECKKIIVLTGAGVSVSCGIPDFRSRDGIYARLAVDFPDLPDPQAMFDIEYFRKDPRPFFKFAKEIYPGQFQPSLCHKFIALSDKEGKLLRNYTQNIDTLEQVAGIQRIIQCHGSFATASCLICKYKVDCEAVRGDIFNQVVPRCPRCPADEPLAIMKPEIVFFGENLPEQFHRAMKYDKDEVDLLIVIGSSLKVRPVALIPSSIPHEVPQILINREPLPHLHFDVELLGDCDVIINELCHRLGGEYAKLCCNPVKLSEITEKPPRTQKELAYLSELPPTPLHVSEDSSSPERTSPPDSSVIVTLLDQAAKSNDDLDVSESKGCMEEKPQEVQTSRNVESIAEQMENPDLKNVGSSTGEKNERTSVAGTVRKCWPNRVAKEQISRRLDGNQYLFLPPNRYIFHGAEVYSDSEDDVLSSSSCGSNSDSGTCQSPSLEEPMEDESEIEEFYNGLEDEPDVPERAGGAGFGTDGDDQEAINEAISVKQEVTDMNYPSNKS
Kind of test: Mass spectrometry based SIRT1 deacetylase activation assay (acetylated p53-derived peptide substrate). The class given is biochemical.

The mark [1] stands for this setting: 0.5 μM peptide substrate, 120 μM βNAD+, 10 nM SIRT1, 25 minutes at 25° C.
The mark [2] stands for this setting: 0.5 μM peptide substrate, 120 μM βNAD+, 10 nM SIRT1, 25 min at 25° C.
[3] abbreviates: 0.5 μM peptide substrate, 120 μM βNAD+, 10 nM SIRT1, 25 min at 25° C., read-out: EC1.5.

Take `Cc1nc(C)c(-c2nc3c(C(=O)Nc4ccc(OC[C@H](O)CO)cc4)cccc3[nH]2)s1` [Compound 798]: under setting [1], the EC1.5 result was “A (EC1.5<1.0 uM)” and the “Fold Act. (percent maximum fold activation)” value is on record as “A (Fold activation >200%)”.
As for `O=C(Nc1nccs1)c1cccc2[nH]c(-c3cccc(Cl)c3F)nc12` [Compound 257], the EC1.5 entry is listed as “B (EC1.5 1-25 uM)” and the “Fold Act. (percent maximum fold activation)” value was “A (Fold activation >200%)”.
For the compound `CCCN1CCc2cc(-c3nc4c(C(=O)Nc5cccnc5)cccc4[nH]3)ccc21` [Compound 569], the “Fold Act. (percent maximum fold activation)” value under setting [2] is “A (Fold activation >200%)”. Also, the EC1.5 under setting [3] lay in the range of 1000 to 25000 nM.
`O=C(Nc1cccc2[nH]c(-c3ccccc3C(F)(F)F)nc12)c1cscn1` [Compound 363]: the EC1.5 entry is recorded as “B (EC1.5 1-25 uM)” and the “Fold Act. (percent maximum fold activation)” value is given as “A (Fold activation >200%)”.
As for `O=C(Nc1cccnn1)c1cc(N2CCOCC2)cc2[nH]c(-c3ccc(Cl)cc3C(F)(F)F)nc12` [Compound 643], under setting [1], the EC1.5 result is reported as “A (EC1.5<1.0 uM)” and the “Fold Act. (percent maximum fold activation)” value is listed as “A (Fold activation >200%)”.
Turning to `Cc1nn(-c2ccccc2)c(C)c1-c1nc2c(C(=O)Nc3nccs3)cccc2[nH]1` [Compound 291], the EC1.5 entry was “A (EC1.5<1.0 uM)” and the “Fold Act. (percent maximum fold activation)” value is “A (Fold activation >200%)”.
With `O=C(Nc1nccs1)c1cccc2[nH]c(-c3ccc(OC4CCNC4)cc3)nc12` (stereo not drawn) [Compound 441], the “Fold Act. (percent maximum fold activation)” value under setting [2] is on record as “A (Fold activation >200%)”. Further, the EC1.5 under setting [3] was under 1000 nM.
As to `Cc1ccc(OCCN2CCOCC2)c(-c2nc3c(C(=O)Nc4nccs4)cccc3[nH]2)c1` [Compound 545], the “Fold Act. (percent maximum fold activation)” value under setting [2] is given as “A (Fold activation >200%)”. For the same compound, under setting [3], the EC1.5 was under 1000 nM.
For the compound `O=C(Nc1cccnc1)c1cncc2nc(-c3ccc(N4CCCC4)cc3C(F)F)[nH]c12` [Compound 812], under setting [1], the EC1.5 entry is given as “A (EC1.5<1.0 uM)” and the “Fold Act. (percent maximum fold activation)” value is “A (Fold activation >200%)”.
With `c1ccc(-n2nccc2-c2nc3c(NCc4cccnc4)cccc3[nH]2)cc1` [Compound 671], under setting [1], the EC1.5 entry is “C (EC1.5 >25 uM)” and the “Fold Act. (percent maximum fold activation)” value was “B (Fold Activation <200%)”.
For `O=C(Nc1cccc2[nH]c(-c3ccc(Cl)cc3C(F)(F)F)nc12)c1ccccn1` [Compound 417], the “Fold Act. (percent maximum fold activation)” value under setting [2] is given as “A (Fold activation >200%)”. The EC1.5 under setting [3] is 1000 to 25000 nM.
Take `CS(=O)(=O)c1ccc(F)cc1-c1nc2c(C(=O)Nc3cccnc3)cccc2[nH]1` [Compound 659]: under setting [1], the EC1.5 entry is on record as “B (EC1.5 1-25 uM)” and the “Fold Act. (percent maximum fold activation)” value was “A (Fold activation >200%)”.
In the case of `CCCN1CCc2cc(-c3nc4c(C(=O)Nc5ncc(C)s5)cccc4[nH]3)ccc21` [Compound 570], the “Fold Act. (percent maximum fold activation)” value under setting [2] is recorded as “B (Fold Activation <200%)”. For the same compound, the EC1.5 under setting [3] is 1000 to 25000 nM.
Regarding `O=C(Nc1nccs1)c1cccc2[nH]c(-c3ccccc3OCCN3CCC(F)(F)CC3)nc12` [Compound 579], the “Fold Act. (percent maximum fold activation)” value under setting [2] is given as “B (Fold Activation <200%)”. For the same compound, the EC1.5 under setting [3] was over 25000 nM.
On the same counts, the results for `O=C(Nc1ccccn1)c1cccc2[nH]c(-c3cccc(OC4CCNC4)c3)nc12` (stereo not drawn) [Compound 463] are “A (Fold activation >200%)” and 1000 to 25000 nM.
For `O=C(Nc1cccc(OC[C@H](O)CO)c1)c1cccc2[nH]c(-c3ccc(Cl)cc3C(F)F)nc12` [Compound 698], under setting [1], the EC1.5 entry is given as “A (EC1.5<1.0 uM)” and the “Fold Act. (percent maximum fold activation)” value is recorded as “A (Fold activation >200%)”.
On to `Cc1nc(C)c(-c2nc3c(C(=O)Nc4ccncc4)cccc3[nH]2)s1` [Compound 318], for which the EC1.5 entry was “A (EC1.5<1.0 uM)” and the “Fold Act. (percent maximum fold activation)” value was “A (Fold activation >200%)”.
With `O=C(Nc1ccc(CN2CCCC2)cc1)c1cccc2[nH]c(-c3cc(CN4CCCC4)ccc3C(F)(F)F)nc12` [Compound 873, 2-(5-(pyrrolidin-1-ylmethyl)-2-(trifluoromethyl)phenyl)-N-(4-(pyrrolidin-1-ylmethyl)phenyl)-1H-benzo[d]imidazole-4-carboxamide], under setting [1], the EC1.5 result is listed as “A (EC1.5<1.0 uM)” and the “Fold Act. (percent maximum fold activation)” value is recorded as “A (Fold activation >200%)”.
For the compound `FC(F)(F)c1cccc(-c2nc3c(Nc4ccccn4)cccc3[nH]2)c1` [Compound 581, N-(pyridin-2-yl)-2-(3-(trifluoromethyl)phenyl)-1H-benzo[d]imidazol-4-amine], under setting [2], the “Fold Act. (percent maximum fold activation)” value is recorded as “B (Fold Activation <200%)”. Besides, the EC1.5 under setting [3] is over 25000 nM.
As for `O=C(Nc1nc(CN2CCOCC2)cs1)c1cccc2[nH]c(-c3ccccc3C(F)F)nc12` [Compound 845], under setting [1], the EC1.5 entry was “A (EC1.5<1.0 uM)” and the “Fold Act. (percent maximum fold activation)” value is “A (Fold activation >200%)”.
In the case of `O=C(Nc1ccccn1)c1cc(N2CCOCC2)cc2[nH]c(-c3ccccc3C(F)(F)F)nc12` [Compound 629], under setting [1], the EC1.5 result is recorded as “A (EC1.5<1.0 uM)” and the “Fold Act. (percent maximum fold activation)” value is “A (Fold activation >200%)”.
For `O=C(Nc1nccs1)c1cccc2[nH]c(-c3ccccc3C(F)(F)F)nc12` [Compound 208, N-(thiazol-2-yl)-2-(2-(trifluoromethyl)phenyl)-1H-benzo[d]imidazole-4-carboxamide], the EC1.5 result is “A (EC1.5<1.0 uM)” and the “Fold Act. (percent maximum fold activation)” value is recorded as “A (Fold activation >200%)”.
In the case of `Cc1cc(C)nc(NC(=O)c2cccc3[nH]c(-c4ccc(N5CCOCC5)cc4C(F)(F)F)nc23)c1` [Compound 590], the “Fold Act. (percent maximum fold activation)” value under setting [2] is listed as “A (Fold activation >200%)”. Besides, the EC1.5 under setting [3] is under 1000 nM.
Consider `O=C(Nc1nccs1)c1cccc2[nH]c(-c3cc(N4CC[C@H](F)C4)ccc3C(F)(F)F)nc12` [Compound 665], for which, under setting [1], the EC1.5 entry is “A (EC1.5<1.0 uM)” and the “Fold Act. (percent maximum fold activation)” value was “A (Fold activation >200%)”.
Take `Cc1cnc(NC(=O)c2cccc3[nH]c(-c4sc(N5CCOCC5)nc4C)nc23)s1` [Compound 601]: under setting [1], the EC1.5 result is “A (EC1.5<1.0 uM)” and the “Fold Act. (percent maximum fold activation)” value is listed as “A (Fold activation >200%)”.
Consider `O=C(Nc1nccs1)c1cccc2[nH]c(-c3ccc(OC[C@H](O)CO)cc3C(F)F)nc12` [Compound 556, (R)-2-(2-(difluoromethyl)-4-(2,3-dihydroxypropoxy)phenyl)-N-(thiazol-2-yl)-1H-benzo[d]imidazole-4-carboxamide], for which the “Fold Act. (percent maximum fold activation)” value under setting [2] is listed as “A (Fold activation >200%)”. Besides, the EC1.5 under setting [3] is under 1000 nM.
Consider `c1cncc(CNc2cccc3[nH]c(-c4cccc(N5CCOCC5)c4)nc23)c1` [Compound 619], for which, under setting [1], the EC1.5 entry is recorded as “B (EC1.5 1-25 uM)” and the “Fold Act. (percent maximum fold activation)” value was “B (Fold Activation <200%)”.
Turning to `CN1CCOc2cc(-c3nc4c(C(=O)Nc5nccs5)cccc4[nH]3)cnc21` [Compound 371], the EC1.5 entry was “A (EC1.5<1.0 uM)” and the “Fold Act. (percent maximum fold activation)” value is reported as “A (Fold activation >200%)”.
On the same counts, the results for `O=C(Nc1nccs1)c1cccc2[nH]c(-c3ccccc3OCCN3CCOCC3)nc12` [Compound 340] are “A (EC1.5<1.0 uM)” and “A (Fold activation >200%)”.
For the compound `Cc1cnc(NC(=O)c2cccc3[nH]c(-c4ccc(OCC(O)CO)cc4C(F)F)nc23)s1` (stereo not drawn) [Compound 557], the “Fold Act. (percent maximum fold activation)” value under setting [2] is “A (Fold activation >200%)”. In addition, the EC1.5 under setting [3] was under 1000 nM.
